The source of these data is article PMC8320897, “Inhibition of PI3K and MAPK pathways along with KIT inhibitors as a strategy to overcome drug resistance in gastrointestinal stromal tumors” (PLoS ONE, 2021).

Data set [1] concerns GIST-T1/670. Kind of data set: Caspase 3/7 apoptosis assay. The data set is classed as cell-based, human. As to conditions: GIST-T1/670, 48 h; for induction of apoptosis (caspase 3/7 activity): single agent. An excerpt:
(§1) Inhibitor concentrations used were as mentioned in figure legends.
(§2) Fig 4 Combined Inhibition of KIT, PI3K and MAPK signaling pathways induces apoptosis in GIST cells. […] The data is represented as percent increase over untreated cells; each column represents mean of triplicates. […] (***p<0.0001); (**p<0.001); (*p<0.05).

Data set [2] deals with GIST882. Description: Cell proliferation assay (Cell Counting Kit-8), drug screen. Type of data set: cell-based. The conditions noted are these: Homo sapiens, read-out: IC50 GIST882.
The subject of data set [3] is GIST-T1/10R. Description: Cell proliferation assay (Cell Counting Kit-8). The conditions noted are these: Homo sapiens, read-out: IC50 T1-10R. Type of data set: cell-based, human.
The subject of data set [4] is p-Akt. Kind of data set: Immunoblot analysis of p-Akt. Type of data set: cell-based. The conditions noted are these: 100 nM, 24 h, all cell lines tested, western blot.
In data set [5] the test system is GIST-T1. Description: Cell proliferation assay (Cell Counting Kit-8), drug screen. Type of data set: cell-based, human. The conditions noted are these: Homo sapiens, read-out: IC50 GIST-T1.
The test system of data set [6] is GIST-T1/670. Kind of data set: Cell proliferation assay (Cell Counting Kit-8). Type of data set: cell-based, human. As to conditions: for IC50: Homo sapiens, read-out: IC50 T1/670.
Data set [7] relates to GIST-T1/10R. Description: Caspase 3/7 apoptosis assay. The data set is classed as cell-based, human. As to conditions: 48 h, single agent.
Excerpt: as §1, §2

Data set [8] relates to GIST-T1. Description: Caspase 3/7 apoptosis assay. The data set is classed as cell-based, human. As to conditions: GIST-T1, 48 h, single agent.
Excerpt: as §1, §2

Data set [9] relates to metastatic GIST. As to conditions: cited from earlier work; for time until resistance occurs: second-line / third-line therapy.
In data set [10] the test system is p-KIT. Description: Immunoblot analysis of p-KIT. The data set is classed as cell-based. As to conditions: 100 nM, GIST882, 24 h, western blot.
Description: (C) GIST882 cells were treated with the indicated inhibitor concentrations for 24 h and cell lysates were run on SDS-PAGE followed by immunoblotting to detect the indicated proteins. Data is representative of two independent experiments.
The test system of data set [11] is p-MAPK. Description: Immunoblot analysis of p-MAPK (p-ERK). Type of data set: cell-based. The conditions noted are these: 24 h.
Data set [12] relates to MCF7. Description: Cell proliferation assay, control cell line. The conditions noted are these: Homo sapiens, MCF7, 72 h, read-out: IC50 MCF7.
The test system of data set [13] is imatinib sensitive cell lines. Description: Cell proliferation assay. The data set is classed as cell-based. As to conditions: 72 h.
For data set [14], the system named is MRC5. Kind of data set: Cell proliferation assay, control cell line. As to conditions: Homo sapiens, MRC5, 72 h, read-out: IC50 MRC5.
For data set [15], the system named is imatinib sensitive and resistant cell lines. Kind of data set: Caspase 3/7 apoptosis assay of screen hits. As to conditions: 24 h and 48 h; irinotecan 0.5 μM, sorafenib 500 nM, compound C 5 μM, triptolide 25 nM. The method, then:
(§3) Around 10,000 cells/well were plated in complete media in 96-well white flat-bottom plates and therapeutic compounds were added 24 hours later. Apoptosis was evaluated by measuring caspase-3/7 activity using Caspase-Glo 3/7 Assay System (Promega, WI, USA) after 24 and 48 h of treatment with inhibitors. […] Inhibitor concentrations used were as mentioned in figure legends.
(§4) The data is represented as % of control; each bar represents the mean of triplicates. […] Cells were treated with inhibitors at indicated concentrations for 24 h.

Data set [16] deals with imatinib-resistant cell lines. Kind of data set: Caspase 3/7 apoptosis assay of screen hits. The data set is classed as cell-based. The conditions noted are these: sorafenib 500 nM; both imatinib-resistant cell lines. The protocol:
as §3, §4

For data set [17], the system named is GIST-T1/670. Kind of data set: Clonogenic (colony outgrowth) assay after drug removal. The conditions noted are these: single agent, 1 month treatment, 2 weeks drug-free. The data set is classed as cell-based, human.
Description: Cells were treated with either IM (1 μM), SU (1 μM), RE (1 μM), GDC (500 nM), PD (500 nM), trametinib (500 nM), either alone or in combination for 1 month with replacement of fresh media with drug every week. Thereafter, cells were washed with PBS twice and fresh media without inhibitors was added and colonies were allowed to grow for 2 more weeks. The colonies were stained with crystal violet and counted. Untreated wells were not revived for extra 2 weeks.
After 1-month duration of treatment, cells were allowed to grow in drug-free media for two weeks before staining with crystal violet.
The subject of data set [18] is GIST cell lines. Description: Cell proliferation assay with trametinib. The conditions noted are these: compared with PD, 72 h.
The test system of data set [19] is MCF7. Kind of data set: Caspase 3/7 apoptosis assay of screen hits. Type of data set: cell-based. As to conditions: triptolide 25 nM. The method, then: as §3, §4
Setting [20] is: GIST882, cell viability after 72 hours of treatment.
Where [21] appears, read: GISTT1, cell viability after 72 hours of treatment.
Setting [22] is: clinical trials in GIST patients.

The structures appear in SMILES notation. Read-outs that look alike come from different tables or passages of the source.

Regarding `CS(=O)(=O)N1CCN(Cc2cc3nc(-c4cccc5[nH]ncc45)nc(N4CCOCC4)c3s2)CC1` [GDC-0941], the “induction of apoptosis (caspase 3/7 activity)” value in data set [1] was “did not induce apoptosis”. Moreover, the IC50 is 500 nM in data set [2] (setting [20]), more than 1000 nM in [3] (setting [21]), 300 nM in data set [5] (setting [21]) and more than 1000 nM in data set [6] (setting [21]). In addition, the “inhibition of phosphorylation of Akt” value in data set [4] is recorded as “inhibits phosphorylation of Akt”.

In the case of `Cc1ccc(NC(=O)c2ccc(CN3CCN(C)CC3)cc2)cc1Nc1nccc(-c2cccnc2)n1` [Imatinib], in [7], the “induction of apoptosis (caspase activity)” value is reported as “did not show increase in caspase activity”. Also, the “induction of apoptosis (caspase 3/7 activity)” value in data set [8] and in [1] was “did not induce apoptosis” each time. Further, in data set [9] (KIT/PDGFRA-driven metastatic GIST, share of cases), the stable disease entry was “approximately 85%”. The “time of treatment to secondary resistance mutations” value in data set [9] (prolonged exposure) is listed as 18–24 months. In addition, in [10], the “inhibition of p-KIT” value was “not sufficient to completely inhibit p-KIT”. The “inhibition of downstream MAPK signaling” value in data set [11] (GIST-T1, IM 1 μM, western blot) came out at 50%.

As to `C[C@]12O[C@H](C[C@]1(O)CO)n1c3ccccc3c3c4c(c5c6ccccc6n2c5c31)CNC4=O` [Lestaurtinib], the IC50 in data set [12] is more than 10000 nM; in [2] (setting [20]), more than 10000 nM; in [3] (setting [21]), 5000 nM; in data set [5] (setting [21]), 100 nM; in [14] it was more than 10000 nM; in data set [6] (setting [21]) it was 5000 nM. For the same compound, the “concentration that inhibited the proliferation of imatinib sensitive cell lines” value in data set [13] is less than 0.5 µM.

Take `O=C(NOC[C@H](O)CO)c1ccc(F)c(F)c1Nc1ccc(I)cc1F` [PD325901]: in data set [1] (over untreated cells), the “increase in apoptosis (caspase 3/7 activity)” value was “about two”. For the same compound, the IC50 in data set [2] (GIST882, 72 h) turned out to be 500 nM; in [3] (GISTT1, 72 h), 1000 nM; in data set [5] (GISTT1, 72 h) it was 500 nM; in data set [6] (GISTT1, 72 h), 1000 nM. Also, the “concentration that inhibited the proliferation of imatinib sensitive cell lines” value in data set [13] was less than 0.5 µM. Besides, the “inhibition of p-MAPK” value in data set [11] (100 nM, any of the cell lines tested, western blot) is listed as “not sufficient to inhibit”. The inhibition at 0.5 µM in data set [11] (read-out: inhibition of p-MAPK) was approximately 80%.

Turning to `CNC(=O)c1cc(Oc2ccc(NC(=O)Nc3ccc(Cl)c(C(F)(F)F)c3)c(F)c2)ccn1` [Regorafenib], the “induction of apoptosis (caspase 3/7 activity)” value in [8] was “did not induce apoptosis”; in data set [1], “able to induce apoptosis effectively”. In addition, the IC50 in data set [12] is more than 10000 nM; in [2] (setting [20]), less than 100 nM; in data set [3] (setting [21]) it was 1000 nM; in data set [5] (setting [21]) it was less than 100 nM; in [14] it was more than 10000 nM; in data set [6] (setting [21]) it was 1000 nM. Also, the “time until resistance occurs” value in data set [9] is 6–12 months.

Turning to `CCn1c(=O)c(-c2cc(NC(=O)Nc3ccccc3)c(F)cc2Br)cc2cnc(NC)cc21` [Ripretinib], the mean progression-free survival in data set [9] (4th line therapy) is 6.3 months.

As for `CNC(=O)c1cc(Oc2ccc(NC(=O)Nc3ccc(Cl)c(C(F)(F)F)c3)cc2)ccn1` [Sorafenib], the IC50 in [2] (setting [20]) is less than 100 nM; in [3] (setting [21]), 200 nM; in [5] (setting [21]) it was 25 nM; in data set [6] (setting [21]) it was less than 500 nM. The “overall progression free survival” value in [9] (setting [22]) is listed as less than 6 mo. The overall response rate in data set [9] (setting [22]) is less than 10%. Further, the “cytotoxic effects (caspase 3/7 activity)” value in data set [15] is not below 2 fold. The “increase in apoptosis (caspase 3/7 activity)” value in [16] is 4–8 fold.

Turning to `CCN(CC)CCNC(=O)c1c(C)[nH]c(/C=C2\C(=O)Nc3ccc(F)cc32)c1C` [Sunitinib], in data set [7], the “induction of apoptosis (caspase activity)” value is on record as “did not induce apoptosis”. Besides, the “induction of apoptosis (caspase 3/7 activity)” value in data set [8] is “not effective”. The “suppression of colony outgrowth” value in [17] is “effective”. Besides, the IC50 in data set [2] (setting [20]) is less than 200 nM; in data set [3] (setting [21]), more than 10000 nM; in data set [5] (setting [21]), 25 nM; in data set [6] (setting [21]), more than 10000 nM. Moreover, in data set [9], the “time until resistance occurs” value is 6–12 months. For the same compound, in data set [6] (GIST-T1/670, S1A Fig), the “sensitivity of cell line (proliferation)” value was “sensitive”.

As for `CC(=O)Nc1cccc(-n2c(=O)n(C3CC3)c(=O)c3c(Nc4ccc(I)cc4F)n(C)c(=O)c(C)c32)c1` [TR, trametinib], in data set [18], the “inhibition of cell proliferation as a single agent” value was “better at inhibiting cell proliferation than PD”.

`CC(C)[C@]12O[C@H]1[C@@H]1O[C@]13[C@]1(O[C@H]1C[C@H]1C4=C(CC[C@@]13C)C(=O)OC4)[C@@H]2O` [Triptolide]: the IC50 in data set [12] is more than 10000 nM; in [2] (setting [20]) it was less than 10 nM; in data set [3] (setting [21]) it was less than 25 nM; in data set [5] (setting [21]), less than 10 nM; in data set [14], 10 nM; in [6] (setting [21]), less than 25 nM. For the same compound, in [15], the “cytotoxic effects (caspase 3/7 activity)” value is recorded as not below 2 fold. Moreover, the “cytotoxicity (caspase 3/7 activity) in MCF7” value in data set [19] is reported as “showed cytotoxicity”. Also, the “concentration that inhibited the proliferation of imatinib sensitive cell lines” value in [13] is less than 0.5 µM.
